Patent US6855728B2, “Small-molecule modulators of hepatocyte growth factor / scatter factor activities” (North Shore-Long Island Jewish Health System, priority 2001, dated 2005)

What was measured:
[1] = system: MDCK cells exposed to adriamycin; experiment: Anti-apoptotic activity assay (MTT viability, adriamycin-induced apoptosis); type: cell-based; conditions: for protection from adriamycin-induced apoptosis: MDCK cells; for cell viability, substance alone: without adriamycin
[2] = system: Endothelial cells (HUVECs); experiment: Endothelial cell (HUVEC) proliferation assay, 3H thymidine incorporation, compound without added growth factor; type: cell-based, human; conditions: for Inhibition at 6-12 micrograms/ml Without HGF/SF: inhibition of endothelial cell proliferation
Procedure, shortened: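 HUVECs grown 24 h in EGM-2, starved 1-2 h in RPMI-1% BSA, then exposed 24 h at 37 degrees C to compounds at 1 to 12 microgram/ml without added growth factors. Proliferation read as 3H thymidine incorporation over 4 to 5 h; human iliac artery endothelial cells also used similarly.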

VEGF-like activity = experiment: Screen for VEGF-like activity in a standard assay; type: cell-based; conditions: for VEGF-like activity: 2 microgram/ml compound
Description: Compounds were screened for VEGF-like activity in a standard assay using 2 microgram/ml compound.

[3] = system: HGF/SF induced proliferation of HUVEC; experiment: Endothelial cell (HUVEC) proliferation assay in the presence of exogenously-added HGF/SF; type: cell-based, human; conditions: with HGF/SF; for inhibition at 2 µg/mL / inhibition at 6 µg/mL: Homo sapiens; for inhibition at 2 µg/mL / Activity at 2 microgram/ml With HGF/SF (result in words): 2 microgram/ml; for inhibition at 2 µg/mL: read-out: Activity at 2 microgram/ml With HGF/SF: inhibition (blocked SF); for inhibition at 6 µg/mL: read-out: Activity at 6 microgram/ml With HGF/SF: inhibition (blocked SF)
Description: To evaluate inhibitors of activity, compounds may be evaluated directly for anti-proliferative activities, such as the inhibition of cellular proliferation, inhibition of tumor growth, inhibition of scatter, and inhibition of gene expression, and may also be evaluated on their ability to inhibit activity when exposed to cells together with. In such instances, the scatter and/or proliferative activities induced by added will be inhibited by the attendant presence of an inhibitory compound of the invention.
Cell proliferation assays Endothelial cells (HUVECs) were seeded in 48 well plates at a density of 10,000 to 20,000 cells per well in the normal growth medium (EGM-2-Clonetics) containing 2% fetal bovine serum, FGF, VEGF, IGF, ascorbic acid, EGF, GA, heparin and hydrocortisone. The cells were grown normally in the growth medium for 24 hr at 37 degrees C. and 5% CO2. The cells were then rinsed with RPMI-1% BSA and starved for 1-2 hrs. The stock solutions of all the compounds were made at a concentration of 10 mg/ml in DMSO and diluted in RPMI-1% BSA at a final concentrations of 1 to 12 microgram/ml. The cells were then washed and treated with the compounds and incubated for another 24 hr at 37 degrees C. Then ^3H thymidine (0.5 microgram/ml in RPMI-BSA) was added to the cells and incubated at 37 degrees C. for 4 to 5 hours. The unincorporated thymidine was removed by washing the cells four times with 1× PBS. Then the cells were lysed with 0.5M NaOH for 30 min and the radioactivity counted in the beta counter.

DU145 cells = experiment: Clonogenic assay; type: cell-based; conditions: clonogenic assay over 7 days
Description: The effect of (4-(2-chloro-6-fluorobenzyl)-3,5-dimethyl-1H-pyrazole-1-yl)(3-(2,6-dichlorophenyl)-5-methylisoxazol-4-yl)methanone (FIG. 7) and 1-(4-chloro-3-methylphenyl)-3-(2,6-dichlorophenyl)-prop-2-en-1-one were evaluated in a clonogenic assay over 7 days.

[4] = system: growth of blood vessels from subcutaneous tissue into Matrigel; experiment: In vivo blood vessel ingrowth assay (Matrigel); conditions: mice, Matrigel mixed with compound injected subcutaneously, 10 days
Description: Angiogenesis was assayed as growth of blood vessels from subcutaneous tissue into a solid gel of basement membrane containing the test compound. Matrigel in liquid form (0.5 ml) was mixed with a compound of the invention, or basic fibroblast growth factor as a control, and injected into the abdominal subcutaneous tissue of mice as previously described (Kibbey, M. C., Grant, D. S. Auerbach, R. and Kleinman, H. K. [1992] Role of the SIKVAV site of laminin in promotion of angiogenesis and tumor growth: an in vivo Matrigel model. J. Natl. Can. Inst. 84, 1633-38). After 10 days, mice were sacrificed and the Matrigel plugs were removed, fixed, sectioned, stained and examined for ingrowth of blood vessels.

[5] = system: mice following removal of the femoral artery; experiment: In vivo blood flow improvement assay; conditions: administered to mice for seven days following removal of the femoral artery
another cell line = experiment: Anti-apoptotic activity assay in another cell line; type: cell-based
Description: Anti-apoptotic Activity Assay. The ability of compounds of the present invention to protect cells-from apoptosis was performed using a MTT viability assay with MDCK cells exposed to adriamycin (15 micromolar) to induce apoptosis. HGF/SF was evaluated as a positive control.
In another cell line, 90% protection was afforded by (4-chlorophenyl)[3-(2-(2-thienyl)vinyl)-1H-pyrazol-1-yl]methanone.

c-Met receptor = c-Met receptor (Homo sapiens, UniProt P08581); experiment: HUVEC proliferation assay with free c-Met receptor (specificity); type: cell-based
Description: The following assays were used to evaluate the activity of the various compounds discussed herein. Certain of the compounds and groups thereof express-like activity, i.e., they induce scatter, cell proliferation, inhibit apoptosis, among other activities, and if acting through the c-Met receptor, agonize or stimulate c-Met receptor activity. The specificity for such compounds working through the c-Met receptor may be identified by performing the stimulation assay in the presence of free c-Met receptor. Reduction of a proliferative response in the presence of c-Met indicates such specificity.
Cell proliferation assays Endothelial cells (HUVECs) were seeded in 48 well plates at a density of 10,000 to 20,000 cells per well in the normal growth medium (EGM-2-Clonetics) containing 2% fetal bovine serum, FGF, VEGF, IGF, ascorbic acid, EGF, GA, heparin and hydrocortisone. The cells were grown normally in the growth medium for 24 hr at 37 degrees C. and 5% CO2. The cells were then rinsed with RPMI-1% BSA and starved for 1-2 hrs. […] Then the cells were lysed with 0.5M NaOH for 30 min and the radioactivity counted in the beta counter.
The specificity of the stimulation of endothelial cell growth by the compound as measured by ^3H-thymidine incorporation was tested by pre-incubation of cells with the HGF/SF receptor c-met. […]

MDCK cells = experiment: Scatter assay; type: cell-based; conditions: 6 microgram/ml; microscopic examination
Description: Scatter Assay. A standard assay for scatter of MDCK cells was performed. Results were evaluated by microscopic examination.

[6] = inhibition of HUVEC proliferation
[7] = 6 microgram/ml, inhibition of HUVEC proliferation

Chain of c-Met receptor (P08581 25-1390): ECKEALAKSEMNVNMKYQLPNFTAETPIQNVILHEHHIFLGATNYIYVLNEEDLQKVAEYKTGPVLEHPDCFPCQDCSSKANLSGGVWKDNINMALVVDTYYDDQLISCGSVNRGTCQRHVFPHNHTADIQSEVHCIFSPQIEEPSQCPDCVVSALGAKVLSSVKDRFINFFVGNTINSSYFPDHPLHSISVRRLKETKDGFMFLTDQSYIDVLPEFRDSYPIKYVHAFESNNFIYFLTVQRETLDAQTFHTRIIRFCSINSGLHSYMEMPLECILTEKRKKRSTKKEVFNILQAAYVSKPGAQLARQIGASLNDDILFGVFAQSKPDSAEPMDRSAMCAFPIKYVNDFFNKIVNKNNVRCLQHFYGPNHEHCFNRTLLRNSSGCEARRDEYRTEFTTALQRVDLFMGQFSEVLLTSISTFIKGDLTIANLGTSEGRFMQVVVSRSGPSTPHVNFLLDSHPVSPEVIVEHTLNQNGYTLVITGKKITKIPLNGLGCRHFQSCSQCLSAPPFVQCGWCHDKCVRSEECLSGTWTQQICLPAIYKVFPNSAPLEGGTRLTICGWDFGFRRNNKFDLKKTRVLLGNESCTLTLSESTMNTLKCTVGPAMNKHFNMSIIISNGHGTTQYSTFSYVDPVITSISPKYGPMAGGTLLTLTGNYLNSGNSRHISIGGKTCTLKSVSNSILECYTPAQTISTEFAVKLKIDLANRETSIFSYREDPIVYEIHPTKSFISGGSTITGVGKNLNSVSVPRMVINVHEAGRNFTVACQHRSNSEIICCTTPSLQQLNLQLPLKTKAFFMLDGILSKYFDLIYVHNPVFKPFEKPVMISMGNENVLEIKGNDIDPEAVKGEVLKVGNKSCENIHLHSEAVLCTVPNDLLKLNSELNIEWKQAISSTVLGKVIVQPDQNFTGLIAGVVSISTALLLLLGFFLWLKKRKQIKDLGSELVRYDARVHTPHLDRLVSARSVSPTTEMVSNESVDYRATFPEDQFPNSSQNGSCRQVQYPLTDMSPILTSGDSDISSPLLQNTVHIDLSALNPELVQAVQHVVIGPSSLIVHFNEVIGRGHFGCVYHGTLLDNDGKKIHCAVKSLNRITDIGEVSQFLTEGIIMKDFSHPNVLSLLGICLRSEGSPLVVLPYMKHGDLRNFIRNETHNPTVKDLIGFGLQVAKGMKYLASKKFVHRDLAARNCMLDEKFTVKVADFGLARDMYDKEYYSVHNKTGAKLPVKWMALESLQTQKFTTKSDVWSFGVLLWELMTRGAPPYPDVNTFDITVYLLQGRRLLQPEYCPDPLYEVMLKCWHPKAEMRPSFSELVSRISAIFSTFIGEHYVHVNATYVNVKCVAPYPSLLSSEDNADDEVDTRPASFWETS

COc1cccc2c1C(=O)c1c(O)c3c(c(O)c1C2=O)C[C@@](O)(C(=O)CO)C[C@@H]3O[C@H]1C[C@H](N)[C@H](O)[C@H](C)O1 [Adriamycin, reference compound]
cell viability ([1]; Adriamycin (15 µM)): 56 % of control

HGF/SF: hepatocyte growth factor/scatter factor, pleiotropic growth factor; evaluated as a positive control
protection from adriamycin-induced apoptosis [1]: 94% | cell viability, substance alone [1]: unchanged | effect on HUVEC proliferation, substance alone (FIG. 5) [2]: increases the proliferation of HUVEC

VEGF
activity of VEGF in the VEGF-like activity assay (VEGF-like activity): 1259±104 cpm

Cc1nn(C(=O)c2c(-c3c(Cl)cccc3Cl)noc2C)c(C)c1Cc1c(F)cccc1Cl [(4-(2-chloro-6-fluorobenzyl)-3,5-dimethyl-1H-pyrazole-1-yl)(3-(2,6-dichlorophenyl)-5-methylisoxazol-4-yl)methanone]
Activity at 2 microgram/ml Without HGF/SF (result in words) ([2]; 2 microgram/ml, without HGF/SF): No effect | inhibition at 2 µg/mL [3, 6]: 40 to 90% | inhibition at 6 µg/mL [3, 7]: 50 to 100% | DU145 cell growth (DU145 cells): dose responsive inhibition | ingrowth of blood vessels into Matrigel plug [4]: significant stimulation of blood vessel ingrowth

O=C(c1ccc(Cl)cc1)n1ccc(C=Cc2cccs2)n1 [(4-chlorophenyl)[3-(2-(2-thienyl)vinyl)-1H-pyrazol-1-yl]methanone]
protection from adriamycin-induced apoptosis [1]: 94% | cell viability, substance alone [1]: unchanged | blood flow [5]: significant improvement in blood flow | stimulation of 3H-thymidine incorporation ([2]; compound by itself, 6 microgram/ml): 84% | protection from adriamycin-induced apoptosis (another cell line): 90% | inhibition of the compound's stimulation of 3H-thymidine incorporation in the presence of c-Met (c-Met receptor; compound 6 microgram/ml plus c-Met receptor 100 microgram/ml): 75% | compound-induced EC proliferation blocked in the presence of C-met receptor (c-Met receptor; compound 12 microgram/ml incubated with C-met receptor 5 microgram/ml for 30 min, then added to cells): 40% | scatter of MDCK cells (MDCK cells): caused scattering of MDCK cells similar to that seen with HGF/SF

O=C1c2ccccc2N(c2ccccc2)C(=O)C1(Br)Br [VC8, 3,3-dibromo-1-phenyl-1,2,3,4-tetrahydroquinoline-2,4-dione]
VEGF-like activity (VEGF-like activity): positive activity

c1ccc(-c2sc(-c3ccccc3)c(-c3ccccc3)c2-c2ccccc2)cc1 [tetraphenylthiophene]
Inhibition at 6-12 micrograms/ml Without HGF/SF ([2]; without HGF/SF): 50% inhibition | Stimulation/Inhibition at 6-12 micrograms/ml With (result in words) ([3]; 6-12 micrograms/ml): No effect

COc1cc(CCC(=O)NNC(=O)c2c(-c3c(Cl)cccc3Cl)noc2C)cc(OC)c1OC [N′4-(3-(3,4,5-trimethoxyphenyl)propanoyl)-3-(2,6-dichlorophenyl)-5-methylisoxazole-4-carbohydrazide]
Activity at 6 microgram/ml Without HGF/SF (result in words) ([2]; 6 microgram/ml, without HGF/SF): Cytotoxic | inhibition at 2 µg/mL ([2]; Homo sapiens, 2 microgram/ml, without HGF/SF, inhibition of HUVEC proliferation): 50% | inhibition at 2 µg/mL [3, 6]: 50%

Cc1ccc(N=Cc2ccco2)c(C)c1 [N-(furfurylidene)-2,4-xylidine]
Inhibition at 6-12 micrograms/ml Without HGF/SF ([2]; without HGF/SF): 30-40% inhibition | Inhibition at 6-12 micrograms/ml With ([3]; 6-12 micrograms/ml, inhibition of endothelial cell proliferation): 50-60% inhibition

Cc1nn(CCC#N)c(C)c1Cc1c(Cl)cccc1Cl [3-(4-(2,6-dichlorobenzyl)-3,5-dimethyl-1H-pyrazol-1-yl)propanenitrile]
Activity at 2 microgram/ml Without HGF/SF (result in words) ([2]; 2 microgram/ml, without HGF/SF): No effect | inhibition at 6 µg/mL ([2]; Homo sapiens, 6 microgram/ml, without HGF/SF, inhibition of HUVEC proliferation): 34% | inhibition at 2 µg/mL [3, 6]: 36% | inhibition at 6 µg/mL [3, 7]: 65%

O=C(C=Cc1ccc(Br)cc1)c1ccccc1 [3-(4-Bromophenyl)-1-phenylprop-2-en-1-one]
Stimulation at 1 ug/ml Without HGF/SF ([2]; 1 ug/ml, without HGF/SF, stimulation of endothelial cell proliferation): 40-80% stimulation at 1 | Stimulation/Inhibition at 6-12 micrograms/ml With (result in words) ([3]; 6-12 micrograms/ml): some additive effect

Cc1nn(C)c(C)c1Cc1c(F)cccc1Cl [4-(2-chloro-6-fluorobenzyl)-1,3,5-trimethyl-1H-1-pyrazole]
Activity at 2 microgram/ml Without HGF/SF: stimulation ([2]; 2 microgram/ml, without HGF/SF, stimulation of HUVEC proliferation): 50% | Activity at 6 microgram/ml Without HGF/SF (result in words) ([2]; 6 microgram/ml, without HGF/SF): No effect | Activity at 2 microgram/ml With HGF/SF (result in words) [3]: No effect | Activity at 6 microgram/ml With HGF/SF: inhibition (blocked SF) [3, 7]: by 30%

CN(C)c1nc(-c2ccccc2)nc(-c2ccc(Cl)cc2)c1C#N [VC14, 4-(4-chlorophenyl)-6-(dimethylamino)-2-phenyl-5-pyrimidinecarbonitrile]
VEGF-like activity (VEGF-like activity): positive activity

CSC(=NS(=O)(=O)c1ccccc1)NNC(=O)c1c(-c2c(Cl)cccc2Cl)noc1C [N1-((2-((3-(2,6-dichlorophenyl)-5-methylisoxazol-4-yl)carbonyl)hydrazino)(methylthio)methylidene)benzene-1-sulfonamide]
Activity at 2 microgram/ml Without HGF/SF (result in words) ([2]; 2 microgram/ml, without HGF/SF): No effect | Activity at 6 microgram/ml Without HGF/SF (result in words) ([2]; 6 microgram/ml, without HGF/SF): No effect | Activity at 2 microgram/ml With HGF/SF (result in words) [3]: No effect | inhibition at 6 µg/mL [3, 7]: 25%
